Counter-ions that a name gives are not always drawn. Like-named read-outs stand apart in the source and are kept apart here.
Target: T1, Human IP6K1 (Homo sapiens, UniProt Q92551)
T1 construct: GST (N, cleaved yes); made in house; host or cells: C43 E. coli, pGEX-6P-2
Assay: IP6K1 high-throughput screen of the Sigma LOPAC (ADP-Glo Max, single point);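 note: final compound concentration 10µM in 5% DMSO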
Type: biochemical

[1] = LOPAC single-point screen, ADP-Glo Max raw signal per well
[2] = LOPAC single-point screen, Z-score against plate average and StDev
[3] = Sigma LOPAC single-point screen, ADP-Glo Max raw signal per well
[4] = Sigma LOPAC single-point screen, Z-score from plate average and StDev
[5] = LOPAC single-point screen, ADP-Glo Max luminescence raw signal per well
[6] = LOPAC single-point screen, Z-score relative to plate average and StDev
[7] = LOPAC single-point screen, Z-score from raw signal with plate average and StDev
[8] = LOPAC single-point screen, Z-score from plate average and StDev

T1 sequence (Q92551 whole entry): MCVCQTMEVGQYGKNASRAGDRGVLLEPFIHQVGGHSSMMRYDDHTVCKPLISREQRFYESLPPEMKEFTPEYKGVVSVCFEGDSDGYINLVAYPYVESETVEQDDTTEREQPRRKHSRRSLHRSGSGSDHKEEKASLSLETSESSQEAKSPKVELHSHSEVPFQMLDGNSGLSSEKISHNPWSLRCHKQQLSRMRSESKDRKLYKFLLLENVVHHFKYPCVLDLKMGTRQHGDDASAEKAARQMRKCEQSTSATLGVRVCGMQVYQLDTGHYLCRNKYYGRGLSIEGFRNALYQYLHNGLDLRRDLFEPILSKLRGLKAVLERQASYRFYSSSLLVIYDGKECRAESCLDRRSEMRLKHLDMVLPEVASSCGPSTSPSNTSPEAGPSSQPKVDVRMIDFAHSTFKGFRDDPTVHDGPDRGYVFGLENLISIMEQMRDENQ

Row | Compound | Raw Signal [1] | Raw Signal [3] | Z-score [4] | further results
1 | O=C(Nc1ccc([N+](=O)[O-])cc1Cl)c1cc(Cl)ccc1O [Niclosamide] | 53914 |  |  | Z-score [2]: -0.08057
2 | COC(=O)C1=C(C)NC(C)=C(C(=O)OC)C1c1ccccc1[N+](=O)[O-] [Nifedipine] |  | 59653 | 0.8837 | 
3 | O=C(O)c1cccnc1Nc1cccc(C(F)(F)F)c1 [Niflumic acid] |  |  |  | Raw Signal [5]: 47033; Z-score [6]: -1.237
4 | CC1(C)NC(=O)N(c2ccc([N+](=O)[O-])c(C(F)(F)F)c2)C1=O [Nilutamide] |  | 62066 | 1.289 | 
5 | CS(=O)(=O)Nc1ccc([N+](=O)[O-])cc1Oc1ccccc1 [Nimesulide] | 51877 |  |  | Z-score [7]: -0.4228
6 | COCCOC(=O)C1=C(C)NC(C)=C(C(=O)OC(C)C)C1c1cccc([N+](=O)[O-])c1 (centres unmarked) [Nimodipine] | 55940 |  |  | Z-score [2]: 0.2599
7 | Cc1ncc(CNC(=O)N(CCCl)N=O)c(N)n1 [Nimustine hydrochloride] | 54692 |  |  | Z-score [2]: 0.05015
8 | CNCCC(Oc1ccccc1OC)c1ccccc1 (centres unmarked) [Nisoxetine hydrochloride] |  |  |  | Raw Signal: 55675; Z-score: 0.2153
9 | CCOC(=O)C1=C(C)NC(C)=C(C(=O)OC)C1c1cccc([N+](=O)[O-])c1 (centres unmarked) [Nitrendipine] |  | 58110 | 0.6245 | 
10 | COC(=O)Nc1nc2ccc(C(=O)c3cccs3)cc2[nH]1 [Nocodazole] |  | 59128 | 0.7955 | 
11 | CN1Cc2c(N)cccc2C(c2ccccc2)C1 (centres unmarked) [Nomifensine maleate] | 56397 |  |  | Z-score [2]: 0.3366
12 | O=C1OC(=O)[C@H]2[C@@H]1[C@@H]1CC[C@H]2O1 [Norcantharidin] | 52142 |  |  | Z-score [7]: -0.3783
13 | CNCCC=C1c2ccccc2CCc2ccccc21 [Nortriptyline hydrochloride] | 54505 |  |  | Z-score [2]: 0.01873
14 | COc1ccc2c(c1OC)C(=O)O[C@@H]2[C@H]1c2c(cc3c(c2OC)OCO3)CCN1C.Cl [Noscapine hydrchloride] | 53510 |  |  | Z-score [7]: -0.1485
15 | CC(CCc1ccccc1)NC(C)C(O)c1ccc(O)cc1 (centres unmarked) [Nylidrin hydrochloride] | 56232 |  |  | Z-score [2]: 0.3089
16 | Nc1nc(OCc2ccccc2)c2nc[nH]c2n1 [O6-benzylguanine] | 56623 |  |  | Z-score [7]: -0.2272
17 | COc1ccc2[nH]cc(CCN)c2c1.Cl [O-Methylserotonin hydrochloride] | 53655 |  |  | Z-score [7]: -0.1241
18 | N[C@@H](COP(=O)(O)O)C(=O)O [O-Phospho-L-serine] |  | 59842 | 0.9155 | 
19 | O=c1onc2cnc3ccccc3n12 [ODQ] |  | 60819 | 1.08 | 
20 | C[C@@H]1O[C@H](C[N+](C)(C)C)CS1.[I-] [OXA-22 iodide] |  | 57438 | 0.4612 | 
21 | CC1COc2c(N3CCN(C)CC3)c(F)cc3c(=O)c(C(=O)O)cn1c23 (centres unmarked) [Ofloxacin] | 52269 |  |  | Z-score [7]: -0.357

Row | Compound | Raw Signal [1] | Raw Signal [3] | Z-score [4] | further results
22 | CCCCCCCC/C=C\CCCCCCCC(=O)O [Oleic Acid] | 53829 |  |  | Z-score [7]: -0.09485
23 | Cn1cnc2c(NCc3ccccc3)nc(NCCO)nc21 [Olomoucine] |  | 60982 | 1.107 | 
24 | C[C@@H]1O[C@@H](O[C@H]2C[C@@H](O)[C@]3(CO)[C@H]4[C@H](O)C[C@]5(C)[C@@H](C6=CC(=O)OC6)CC[C@]5(O)[C@@H]4CC[C@]3(O)C2)[C@H](O)[C@H](O)[C@H]1O [Ouabain] |  | 56928 | 0.4259 | 
25 | O=C(O)CCc1nc(-c2ccccc2)c(-c2ccccc2)o1 [Oxaprozin] |  | 57771 | 0.5675 | 
26 | O=c1[nH]c2ccccc2n1CCCN1CCN(C(c2ccccc2)c2ccccc2)CC1 [Oxatomide] | 55062 |  |  | Z-score [2]: 0.1123
27 | NC(=O)CN1CC(O)CC1=O (centres unmarked) [Oxiracetam] | 55053 |  |  | Z-score [2]: 0.1108
28 | CCn1cc(C(=O)O)c(=O)c2cc3c(cc21)OCO3 [Oxolinic acid] |  | 60270 | 0.9874 | 
29 | C[N+](C)(C)CC#CCN1CCCC1=O [Oxotremorine methiodide] |  |  |  | Raw Signal [5]: 63016; Z-score [8]: 1.4488
30 | O=C(O)/C=C/C(=O)O.O=C(O)/C=C/C(=O)O.O=C(O)/C=C/C(=O)O.O=C1CCCN1CC#CCN1CCCC1.O=C1CCCN1CC#CCN1CCCC1 [Oxotremorine sesquifumarate salt] | 55438 |  |  | Z-score [2]: 0.1755
31 | CCN(CC)CC#CCOC(=O)C(O)(c1ccccc1)C1CCCCC1 (centres unmarked) [Oxybutynin Chloride] | 55631 |  |  | Z-score [2]: 0.2079
32 | Cc1cc(C(C)(C)C)c(O)c(C)c1CC1=NCCN1 [Oxymetazoline hydrochloride] | 52488 |  |  | Z-score [7]: -0.3202
33 | Nc1ccc(CCN2CCN(c3cccc(C(F)(F)F)c3)CC2)cc1 [PAPP] | 56132 |  |  | Z-score [2]: 0.02102
34 | COc1cccc(-c2cc(=O)c3ccccc3o2)c1N [PD 98,059] | 54412 |  |  | Z-score [7]: -0.3131
35 | Cc1cccc(C(=O)NCN2CCN(c3ccccc3C#N)CC2)c1.O=C(O)/C=C\C(=O)O [PD 168,077 maleate] |  |  |  | Raw Signal [5]: 64247; Z-score [8]: 1.598
36 | N=C1Sc2ccccc2C2=NCCCN12 [PD 404,182] | 56268 |  |  | Z-score [2]: 0.315
37 | CCC(C)N(C)C(=O)c1cc2ccccc2c(-c2ccccc2Cl)n1 (centres unmarked) [PK 11195] |  |  |  | Raw Signal [5]: 54307; Z-score [6]: -0.6351
38 | Cc1nc(N=Nc2ccc(S(=O)(=O)O)cc2S(=O)(=O)O)c(COP(=O)(O)O)c(C=O)c1O [PPADS] | 55598 |  |  | Z-score [2]: -0.08273
39 | Cc1nc(N=Nc2cc(S(=O)(=O)[O-])c3cc([N+](=O)[O-])cc(S(=O)(=O)[O-])c3c2)c(COP(=O)([O-])[O-])c(C=O)c1O.[Na+].[Na+].[Na+].[Na+] [PPNDS tetrasodium] |  |  |  | Raw Signal [5]: 31816; Z-score [6]: -3.794
40 | O=C(OCCN1CCOCC1)C1(c2ccccc2)CCCCC1 [PRE-084] | 55518 |  |  | Z-score [2]: 0.1889
41 | CCCCCCCCCCCCCCCC(=O)NCCO [Palmitoylethanolamide] |  |  |  | Raw Signal [5]: 51451; Z-score [6]: -0.4944
42 | CC(=O)O[C@H]1C[C@@H]2CC[C@@H]3[C@H](CC[C@@]4(C)[C@H]3C[C@H]([N+]3(C)CCCCC3)[C@@H]4OC(C)=O)[C@@]2(C)C[C@@H]1[N+]1(C)CCCCC1 [Pancuronium bromide] |  | 59072 | 0.7861 | 

Row | Compound | Raw Signal [1] | Raw Signal [3] | Z-score [4] | further results
43 | COc1ccc(Cc2nccc3cc(OC)c(OC)cc23)cc1OC [Papaverine hydrochloride] |  | 61808 | 1.246 | 
44 | C#CCN(C)Cc1ccccc1 [Pargyline hydrochloride] | 54085 |  |  | Z-score [7]: -0.3767
45 | NC[C@@H]1O[C@H](O[C@H]2[C@@H](O)[C@H](O[C@@H]3[C@@H](O)[C@H](N)C[C@H](N)[C@H]3O[C@H]3O[C@H](CO)[C@@H](O)[C@H](O)[C@H]3N)O[C@@H]2CO)[C@H](N)[C@@H](O)[C@@H]1O [Paromomycin sulfate] | 55765 |  |  | Z-score [2]: -0.05028
46 | C=C1C(=O)O[C@H]2[C@H]1CC/C(C)=C/CC[C@@]1(C)O[C@@H]21 [Parthenolide] |  | 56472 | 0.3492 | 
47 | CN1C(C)(C)CCCC1(C)C [Pempidine tartrate] |  | 56899 | 0.421 | 
48 | N=C(N)c1ccc(OCCCCCOc2ccc(C(=N)N)cc2)cc1 [Pentamidine isethionate] | 54696 |  |  | Z-score [2]: 0.05083
49 | C[N+]1(CCCCC[N+]2(C)CCCC2)CCCC1.O=C([O-])C(O)C(O)C(=O)O.O=C([O-])C(O)C(O)C(=O)O [Pentolinium di[L(+)-tartrate]] |  | 60160 | 0.9689 | 
50 | CC(=O)CCCCn1c(=O)c2c(ncn2C)n(C)c1=O [Pentoxifylline] | 53271 |  |  | Z-score [7]: -0.1886
51 | C1CCc2nnnn2CC1 [Pentylenetetrazole] |  | 57450 | 0.5136 | 
52 | CCCN1C[C@H](CSC)C[C@@H]2c3cccc4[nH]cc(c34)C[C@H]21 [Pergolide methanesulfonate] | 53757 |  |  | Z-score [7]: -0.4404
53 | OCCN1CCN(CCCN2c3ccccc3Sc3ccc(Cl)cc32)CC1 [Perphenazine] |  | 57078 | 0.4511 | 
54 | NCC(CP(=O)(O)O)c1ccc(Cl)cc1 (centres unmarked) [Phaclofen] |  | 61057 | 0.9779 | 
55 | NC(=Nc1ccccc1)NC(=O)c1nc(Cl)c(N)nc1N [Phenamil methanesulfonate] |  |  |  | Raw Signal [5]: 52022; Z-score [6]: -0.7775
56 | NNCCc1ccccc1 [Phenelzine sulfate] |  | 58733 | 0.5263 | 
57 | CN(C)CCC(c1ccccc1)c1ccccn1 (centres unmarked) [Pheniramine maleate] | 57488 |  |  | Z-score [2]: 0.2845
58 | CC(COc1ccccc1)N(CCCl)Cc1ccccc1 (centres unmarked) [Phenoxybenzamine hydrochloride] |  | 61919 | 0.7056 | 
59 | Cc1ccc(N(CC2=NCCN2)c2cccc(O)c2)cc1 [Phentolamine mesylate] | 54426 |  |  | Z-score [7]: -0.3104
60 | CCCCC1C(=O)N(c2ccccc2)N(c2ccccc2)C1=O [Phenylbutazone] |  |  |  | Z-score [7]: -0.2764
61 | CNC[C@H](O)c1cccc(O)c1 [Phenylephrine hydrochloride] | 56055 |  |  | Z-score [2]: 0.2792
62 | O=C1NC(=O)C(c2ccccc2)(c2ccccc2)N1 [Phenytoin sodium] |  |  |  | Raw Signal [5]: 66782; Z-score [8]: 2.359
63 | O=C(CCc1ccc(O)cc1)c1c(O)cc(O)cc1O [Phloretin] |  | 58655 | 0.5112 | 

Reference: PMC5706701, “Development of a homogenous high-throughput assay for inositol hexakisphosphate kinase 1 activity” (PLoS ONE, 2017)
